The nature of data set [1]: Cytotoxicity against human ECA109 cells assessed as decrease in cell proliferation after 48 hrs by MTT assay. It counts as functional, cell-based. To be noted: ECa-109, 48 h. Background: Formazan colour is commonly taken as a measure of viable cells.
Data set [2] can be described thus: Cytotoxicity against human HeLa cells assessed as decrease in cell proliferation after 48 hrs by MTT assay. The format is functional, cell-based.
A short description of data set [3]: Cytotoxicity against HEEC assessed as decrease in cell proliferation after 48 hrs by MTT assay. It counts as toxicity. To be noted: human, HEEC cells.
Data set [4] deals with T1, DNA topoisomerase 1 (Homo sapiens) (UniProt P11387).
T1 sequence (whole entry): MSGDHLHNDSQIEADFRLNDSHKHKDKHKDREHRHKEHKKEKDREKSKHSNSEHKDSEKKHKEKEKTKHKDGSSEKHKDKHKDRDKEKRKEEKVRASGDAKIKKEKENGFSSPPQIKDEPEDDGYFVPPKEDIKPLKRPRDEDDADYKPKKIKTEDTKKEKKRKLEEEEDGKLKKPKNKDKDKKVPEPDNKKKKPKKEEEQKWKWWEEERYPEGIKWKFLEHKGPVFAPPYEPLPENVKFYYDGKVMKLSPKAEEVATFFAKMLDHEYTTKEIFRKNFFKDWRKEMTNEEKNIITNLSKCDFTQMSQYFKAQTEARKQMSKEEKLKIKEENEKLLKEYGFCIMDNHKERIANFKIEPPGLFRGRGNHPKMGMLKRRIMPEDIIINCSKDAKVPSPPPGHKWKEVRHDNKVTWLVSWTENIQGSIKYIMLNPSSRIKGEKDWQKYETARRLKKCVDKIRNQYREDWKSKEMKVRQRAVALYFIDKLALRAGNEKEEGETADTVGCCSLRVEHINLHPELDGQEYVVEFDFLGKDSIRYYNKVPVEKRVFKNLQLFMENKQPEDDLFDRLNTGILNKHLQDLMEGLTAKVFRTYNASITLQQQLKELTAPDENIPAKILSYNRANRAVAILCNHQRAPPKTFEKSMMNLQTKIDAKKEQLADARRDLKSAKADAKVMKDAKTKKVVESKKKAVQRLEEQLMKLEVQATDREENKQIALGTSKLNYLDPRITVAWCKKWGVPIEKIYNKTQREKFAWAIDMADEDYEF
In words: Inhibition of DNA topoisomerase-1 (unknown origin)-mediated supercoiled pBR322 DNA relaxation at 5 uM after 30 mins by agarose gel electrophoresis.

The test system of data set [5] is HeLa. In words: Induction of apoptosis in human HeLa cells assessed as chromatin condensation at IC50 after 48 hrs by Hoechst 33342 staining-based fluorescence microscopic method. It counts as functional, cell-based.
The test system of data set [6] is HeLa. The data set is described as follows: Induction of apoptosis in human HeLa cells assessed as chromatin fragmentation at IC50 after 48 hrs by Hoechst 33342 staining-based fluorescence microscopic method. The format is functional, cell-based.
Data set [7] has as its target T1, DNA topoisomerase 1 (Homo sapiens). The data set is described as follows: Inhibition of DNA topoisomerase-1 (unknown origin)-mediated supercoiled pBR322 DNA relaxation at 100 uM after 30 mins by agarose gel electrophoresis.
The target is the same in data set [8]. In words: Inhibition of DNA topoisomerase-1 (unknown origin)-mediated supercoiled pBR322 DNA relaxation at 25 uM after 30 mins by agarose gel electrophoresis.

Our source for the IC50, inhibition and Activity values is ChEMBL document CHEMBL3860081, “Design, synthesis and biological evaluation of lapachol derivatives possessing indole scaffolds as topoisomerase I inhibitors” (Bioorg Med Chem, 2016).

The term IC50 denotes the concentration that gives 50% inhibition.

Activity calls are given as the source filed them. No cut-off for these calls is given here.

As for `O=C1C(O)=C(C(c2ccc([N+](=O)[O-])cc2)c2c(-c3ccccc3)[nH]c3ccccc23)C(=O)c2ccccc21` (stereo not given), the figures for the IC50 in data set [1] and in data set [2] were 5.08 µM and 6.77 µM, respectively. Further, in data set [3], the IC50 at 48 h worked out at 14.2 µM. The inhibition entry in data set [4] was “Active”. In addition, the result in data set [5] and in data set [6] was Active.
Take `O=C1C(O)=C(C(c2ccc(Cl)cc2)c2c[nH]c3ccccc23)C(=O)c2ccccc21` (stereo not given): the IC50 stood at 45.8 µM in data set [1] and 37 µM in data set [2]. In data set [3], the IC50 at 48 h was found to be 102 µM.
Taken in the same sequence, the figures for `CC[C@@]1(O)C(=O)OCc2c1cc1n(c2=O)Cc2cc3ccccc3nc2-1` [CAMPTOTHECIN] were 9.52 µM, 11.4 µM and 17.7 µM.
For `O=C1C(O)=C(C(c2ccc(F)cc2)c2c[nH]c3ccccc23)C(=O)c2ccccc21` (stereo not given), in that order: 28.1 µM, 15.8 µM and 65.2 µM.
For `COc1ccccc1C(C1=C(O)C(=O)c2ccccc2C1=O)c1c[nH]c2ccccc12` (stereo not given), in that order: > 200 µM, 128 µM and > 200 µM.
Regarding `CC(C)=CCC1=C(O)C(=O)c2ccccc2C1=O` [LAPACHOL], the IC50 in data set [1] amounted to 12.6 µM; in data set [2], 20.4 µM. The IC50 at 48 h in data set [3] worked out at 20.2 µM.
`O=C1C(O)=C(C(c2cccc([N+](=O)[O-])c2)c2c[nH]c3ccccc23)C(=O)c2ccccc21` (stereo not given): the IC50 in data set [1] was 36.1 µM; in data set [2], 24.9 µM. For the same compound, the IC50 at 48 h in data set [3] was found to be 91.2 µM.
In the case of `O=C1C(O)=C(C(c2ccc([N+](=O)[O-])cc2)c2c[nH]c3ccccc23)C(=O)c2ccccc21` (stereo not given), the IC50 came out at 60.9 µM in data set [1] and 14.8 µM in data set [2]. In addition, the IC50 at 48 h in data set [3] was > 200 µM.
For `O=C1C(O)=C(C(c2ccccc2)c2c(-c3ccccc3)[nH]c3ccccc23)C(=O)c2ccccc21` (stereo not given), in that order: 5.18 µM, 18.8 µM and 26.4 µM.
As to `COc1cccc(C(C2=C(O)C(=O)c3ccccc3C2=O)c2c[nH]c3ccccc23)c1` (stereo not given), the IC50 in data set [1] was found to be 40 µM; in data set [2], 25.6 µM. Further, the IC50 at 48 h in data set [3] worked out at 110 µM.
Taken in the same sequence, the figures for `O=C1C(O)=C(C(c2cccs2)c2c[nH]c3ccccc23)C(=O)c2ccccc21` (stereo not given) were 12.1 µM, 12.4 µM and 31.2 µM.
On to `COc1cc(C(C2=C(O)C(=O)c3ccccc3C2=O)c2c[nH]c3ccc(Br)cc23)cc(OC)c1OC` (stereo not given), for which the IC50 was found to be 13 µM in data set [1] and 9.71 µM in data set [2]. The IC50 at 48 h in data set [3] stood at 36.3 µM. Further, the inhibition result in data set [7] was “Active”.
With `COc1ccc(C(C2=C(O)C(=O)c3ccccc3C2=O)c2c[nH]c3ccccc23)cc1Br` (stereo not given), the figures for the IC50 in data set [1] and in data set [2] were 11.8 µM and 7.32 µM, respectively. Further, the IC50 at 48 h in data set [3] was found to be 25.2 µM. Moreover, in data set [8], the inhibition result was “Active”.
Regarding `Cc1[nH]c2ccccc2c1C(C1=C(O)C(=O)c2ccccc2C1=O)c1ccc(Cl)cc1` (stereo not given), the IC50 in data set [1] turned out to be 14.3 µM; in data set [2], 8.03 µM. In data set [3], the IC50 at 48 h was found to be 40.2 µM.
For `O=C1C(O)=C(C(c2ccc([N+](=O)[O-])cc2)c2c[nH]c3ccc(Br)cc23)C(=O)c2ccccc21` (stereo not given), in that order: 16.9 µM, 14.1 µM and 45.2 µM.
Regarding `O=C1C(O)=C(C(c2cccc([N+](=O)[O-])c2)c2c(-c3ccccc3)[nH]c3ccccc23)C(=O)c2ccccc21` (stereo not given), the IC50 in data set [1] came out at 5.83 µM; in data set [2], 12.5 µM. Further, the IC50 at 48 h in data set [3] worked out at 13.4 µM. The inhibition result in data set [8] is “Active”.
`Cc1[nH]c2ccccc2c1C(C1=C(O)C(=O)c2ccccc2C1=O)c1ccc([N+](=O)[O-])cc1` (stereo not given): the IC50 in data set [1] was 6 µM; in data set [2], 4.57 µM. Also, the IC50 at 48 h in data set [3] stood at 15.1 µM. Also, the inhibition entry in data set [8] was “Active”. In addition, the outcome in data set [5] and in data set [6] was Active.
